# Assay results taken from patent EP1432683B9 (Recordati Ireland Limited, priority 2001, dated 2003).
# Several values for one entry are separate records, joined by “and”; a condition that tells them apart may be missing. Equal values may be shown once. Where a name gives a salt, the structure may show the parent alone. Read-outs that look alike come from different tables or passages of the source. Marks after values point to notes of the source that are not given here.
# Legend:
# [1] = Solubility in water and in ethanol at room temperature (UV-Visible spectroscopy); assay type: physicochemical
# Text: The molar absorptivity had been previously determined in acetonitrile. The same molar absorptivity was considered for the determination in water and in ethanol. Solubility in water certainly depends on pH. The residual solid obtained by filtration of the suspension was immediately analyzed with Raman spectroscopy.
# [2] = Relative bioavailability of Form (I) and Form (II) in man; assay type: in vivo
# Experimental: Blood samples were taken at 15 points from time 0 to 24 h post-dosing and plasma concentrations of lercanidipine were determined with a stereoselective analytical method HPLC-MS/MS.
# [3] = Hygroscopicity by DVS analysis; assay type: physicochemical; settings: 25°C, whole RH range tested
# Experimental: The hygroscopicity of both crystalline Forms (I) and (II) was measured with DVS analysis by means of a water absorption analyzer (SURFACE MEASUREMENT SYSTEM, Marion, Buckinghamshire, UK) according to the following working conditions: […]
# [4] = Solubility in mixtures of water-ethanol at 25°C and 40°C; assay type: physicochemical; settings: at both 25°C and 40°C
# [5] = Bioavailability of crystalline Forms (I) and (II) in dogs; assay type: in vivo, Beagle dogs
# Experimental: A study was carried out on six Beagle dogs to evaluate the bioavailability of crystalline Forms (I) and (II).
# Blood samples were taken at given times and plasma concentrations of lercanidipine were determined with a stereoselective analytical method HPLC-MS/MS, according to the following working conditions;
# Lercanidipine was extracted from dog plasma by means of a liquid-liquid extraction with a mixture of n-hexane and ethyl ether. The dry residue of the organic phase was taken up with a mixture of methanol and water and a liquid-phase chromatographic separation (LC) was carried out; the two enantiomers of lercanidipine were separated on a CHIROBIOTIC V column (Vancomycin) (particle size […], column size 150 x 4.6 mm (ASTEC, NJ, USA)) and were detected with a mass spectrometer (MS/MS) by using an electrospray technique.
# The analytical method was validated in a concentration range between 0.1 and 20 ng/ml of plasma for both enantiomers. The method has shown to be specific with an accuracy of 15%. The average concentrations of lercanidipine in the tables represent the sum of both enantiomers.
# [6] = Dog 1, oral 3 mg/kg, hydrochloride, 3 mg/kg
# [7] = Dog 2 (not included in mean), oral 3 mg/kg, hydrochloride, 3 mg/kg
# [8] = Dog 3, oral 3 mg/kg, hydrochloride, 3 mg/kg
# [9] = Dog 4, oral 3 mg/kg, hydrochloride, 3 mg/kg
# [10] = Dog 5, oral 3 mg/kg, hydrochloride, 3 mg/kg
# [11] = Mean (n=5, Dog 2 not included), oral 3 mg/kg, hydrochloride, 3 mg/kg
smiles,measurement,setting,value
"COC(=O)C1=C(C)NC(C)=C(C(=O)OC(C)(C)CN(C)CCC(c2ccccc2)c2ccccc2)C1c1cccc([N+](=O)[O-])c1 (single isomer, unassigned) [Form (II), lercanidipine hydrochloride]",Solubility compared with Form (I),[1],less soluble than Form (I) in both solvents
same,bioequivalence to Form I,[2]; 10 mg tablet,not bioequivalent to Form I
same,AUC0-t,"[2]; 10 mg tablet, single dose, geom. least square mean, 1440 min, hydrochloride",10.36 ng·h/mL
same,Cmax,"[2]; 10 mg tablet, single dose, geom. least square mean, hydrochloride",3.22 ng/mL
same,Tmax,"[2]; 10 mg tablet, single dose, median, hydrochloride",2.50* h
same,"tmax Point Estimate (T/R), median difference","[2]; Test = Form (II) tablet, Reference = Form (I) tablet (Zanedip)",0.75** h
same,mass variation,[3],< 0.05%
same,water concentration at which the maximum solubility is reached,[4],20%
same,AUC0-t,[5]; [6],54.59 ng/h/mL
same,Cmax,[5]; [6],18.46 ng/mL
same,Tmax,[5]; [6],3.00 h
same,AUC0-t,[5]; [7],119.77 ng/h/mL
same,Cmax,[5]; [7],52.19 ng/mL
same,Tmax,[5]; [7],1.50 h
same,AUC0-t,[5]; [8],75.62 ng/h/mL
same,Tmax,[5]; [8],1.50 h
same,AUC0-t,[5]; [9],173.82 ng/h/mL
same,Tmax,[5]; [9],4.00 h
same,AUC0-t,[5]; [10],142.34 ng/h/mL
same,Cmax,[5]; [10],55.38 ng/mL
same,Tmax,[5]; [10],2.00 h
same,Tmax,"[5]; Dog 6, oral 3 mg/kg",6.00 h
same,AUC0-t,"[5]; Dog 6, oral 3 mg/kg, hydrochloride, 3 mg/kg",61.91 ng/h/mL
same,AUC0-t,[5]; [11],104.68 ng/h/mL
same,Cmax,[5]; [11],36.17 ng/mL
same,Tmax,[5]; [11],3.00 h
same,concentration in plasma of lercanidipine (S+R),"[5]; Time 0 h, Dog 1, oral 3 mg/kg",0.00 ng/mL
same,concentration in plasma of lercanidipine (S+R),"[5]; Time 0 h, Dog 2 (not included in mean), oral 3 mg/kg",0.00 ng/mL
same,concentration in plasma of lercanidipine (S+R),"[5]; Time 0 h, Dog 3, oral 3 mg/kg",0.00 ng/mL
same,concentration in plasma of lercanidipine (S+R),"[5]; Time 0 h, Dog 4, oral 3 mg/kg",0.00 ng/mL
same,concentration in plasma of lercanidipine (S+R),"[5]; Time 0 h, Dog 5, oral 3 mg/kg",0.00 ng/mL
same,concentration in plasma of lercanidipine (S+R),"[5]; Time 0 h, Dog 6, oral 3 mg/kg",0.00 ng/mL
same,concentration in plasma of lercanidipine (S+R),"[5]; Time 0 h, Mean (Dog 2 not included), oral 3 mg/kg",0.00 ng/mL
same,concentration in plasma of lercanidipine (S+R),"[5]; Time 0.5 h, Dog 1, oral 3 mg/kg, hydrochloride, 3 mg/kg",0.00 ng/mL
same,concentration in plasma of lercanidipine (S+R),"[5]; Time 0.5 h, Dog 2 (not included in mean), oral 3 mg/kg, hydrochloride, 3 mg/kg, 30 min",22.67 ng/mL
same,concentration in plasma of lercanidipine (S+R),"[5]; Time 0.5 h, Dog 4, oral 3 mg/kg",0.00 ng/mL
same,concentration in plasma of lercanidipine (S+R),"[5]; Time 0.5 h, Dog 5, oral 3 mg/kg",0.00 ng/mL
same,concentration in plasma of lercanidipine (S+R),"[5]; Time 0.5 h, Dog 6, oral 3 mg/kg",0.00 ng/mL
same,concentration in plasma of lercanidipine (S+R),"[5]; Time 1 h, Dog 1, oral 3 mg/kg, hydrochloride, 3 mg/kg",0.00 ng/mL
same,concentration in plasma of lercanidipine (S+R),"[5]; Time 1 h, Dog 2 (not included in mean), oral 3 mg/kg, hydrochloride, 3 mg/kg, 60 min",52.13 ng/mL
same,concentration in plasma of lercanidipine (S+R),"[5]; Time 1 h, Dog 6, oral 3 mg/kg",0.00 ng/mL
same,concentration in plasma of lercanidipine (S+R),"[5]; Time 1 h, Mean (Dog 2 not included), oral 3 mg/kg, hydrochloride, 3 mg/kg, 60 min",5.08 ng/mL
same,concentration in plasma of lercanidipine (S+R),"[5]; Time 1.5 h, Dog 1, oral 3 mg/kg, hydrochloride, 3 mg/kg, 90 min",0.23 ng/mL
same,concentration in plasma of lercanidipine (S+R),"[5]; Time 1.5 h, Dog 2 (not included in mean), oral 3 mg/kg, hydrochloride, 3 mg/kg, 90 min",52.19 ng/mL
same,concentration in plasma of lercanidipine (S+R),"[5]; Time 1.5 h, Dog 3, oral 3 mg/kg, hydrochloride, 3 mg/kg, 90 min",19.78 ng/mL
same,concentration in plasma of lercanidipine (S+R),"[5]; Time 1.5 h, Dog 5, oral 3 mg/kg, hydrochloride, 3 mg/kg, 90 min",32.69 ng/mL
same,concentration in plasma of lercanidipine (S+R),"[5]; Time 1.5 h, Mean (Dog 2 not included), oral 3 mg/kg, hydrochloride, 3 mg/kg, 90 min",18.32 ng/mL
same,concentration in plasma of lercanidipine (S+R),"[5]; Time 2 h, Dog 2 (not included in mean), oral 3 mg/kg, hydrochloride, 3 mg/kg, 120 min",35.45 ng/mL
same,concentration in plasma of lercanidipine (S+R),"[5]; Time 2 h, Dog 3, oral 3 mg/kg, hydrochloride, 3 mg/kg, 120 min",17.81 ng/mL
same,concentration in plasma of lercanidipine (S+R),"[5]; Time 2 h, Dog 4, oral 3 mg/kg, hydrochloride, 3 mg/kg, 120 min",38.10 ng/mL
same,concentration in plasma of lercanidipine (S+R),"[5]; Time 2 h, Dog 5, oral 3 mg/kg, hydrochloride, 3 mg/kg, 120 min",55.38 ng/mL
same,concentration in plasma of lercanidipine (S+R),"[5]; Time 2 h, Dog 6, oral 3 mg/kg, hydrochloride, 3 mg/kg, 120 min",10.19 ng/mL
same,concentration in plasma of lercanidipine (S+R),"[5]; Time 2 h, Mean (Dog 2 not included), oral 3 mg/kg, hydrochloride, 3 mg/kg, 120 min",25.82 ng/mL
same,concentration in plasma of lercanidipine (S+R),"[5]; Time 3 h, Dog 1, oral 3 mg/kg, hydrochloride, 3 mg/kg, 180 min",18.46 ng/mL
same,concentration in plasma of lercanidipine (S+R),"[5]; Time 3 h, Dog 2 (not included in mean), oral 3 mg/kg, hydrochloride, 3 mg/kg, 180 min",17.43 ng/mL
same,concentration in plasma of lercanidipine (S+R),"[5]; Time 3 h, Dog 3, oral 3 mg/kg, hydrochloride, 3 mg/kg, 180 min",15.80 ng/mL
same,concentration in plasma of lercanidipine (S+R),"[5]; Time 3 h, Mean (Dog 2 not included), oral 3 mg/kg, hydrochloride, 3 mg/kg, 180 min",23.46 ng/mL
same,concentration in plasma of lercanidipine (S+R),"[5]; Time 4 h, Dog 1, oral 3 mg/kg, hydrochloride, 3 mg/kg, 240 min",14.83 ng/mL
same,concentration in plasma of lercanidipine (S+R),"[5]; Time 4 h, Dog 2 (not included in mean), oral 3 mg/kg, hydrochloride, 3 mg/kg, 240 min",5.17 ng/mL
same,concentration in plasma of lercanidipine (S+R),"[5]; Time 4 h, Dog 4, oral 3 mg/kg, hydrochloride, 3 mg/kg, 240 min",52.64 ng/mL
same,concentration in plasma of lercanidipine (S+R),"[5]; Time 4 h, Dog 6, oral 3 mg/kg, hydrochloride, 3 mg/kg, 240 min",13.24 ng/mL
same,concentration in plasma of lercanidipine (S+R),"[5]; Time 4 h, Mean (Dog 2 not included), oral 3 mg/kg, hydrochloride, 3 mg/kg, 240 min",23.69 ng/mL
same,concentration in plasma of lercanidipine (S+R),"[5]; Time 6 h (last sampling time), Mean (Dog 2 not included), oral 3 mg/kg, hydrochloride, 3 mg/kg, 360 min",10.9 ± 6.8 ng/mL and 10.89 ng/mL
same,concentration in plasma of lercanidipine (S+R),"[5]; Time 6 h, Dog 1, oral 3 mg/kg, hydrochloride, 3 mg/kg, 360 min",8.05 ng/mL
same,concentration in plasma of lercanidipine (S+R),"[5]; Time 6 h, Dog 2 (not included in mean), oral 3 mg/kg, hydrochloride, 3 mg/kg, 360 min",4.50 ng/mL
same,concentration in plasma of lercanidipine (S+R),"[5]; Time 6 h, Dog 3, oral 3 mg/kg, hydrochloride, 3 mg/kg, 360 min",3.62 ng/mL
same,concentration in plasma of lercanidipine (S+R),"[5]; Time 6 h, Dog 4, oral 3 mg/kg, hydrochloride, 3 mg/kg, 360 min",17.46 ng/mL
same,concentration in plasma of lercanidipine (S+R),"[5]; Time 6 h, Dog 5, oral 3 mg/kg, hydrochloride, 3 mg/kg, 360 min",6.76 ng/mL
same,concentration in plasma of lercanidipine (S+R),"[5]; Time 6 h, Dog 6, oral 3 mg/kg, hydrochloride, 3 mg/kg, 360 min",18.56 ng/mL
same,Cmax,"[5]; dog, plasma, po, 3 mg/kg, Dog 3, read-out: Cmax",19.8 ng/mL
same,Cmax,"[5]; dog, plasma, po, 3 mg/kg, Dog 4, read-out: Cmax",52.6 ng/mL
same,Cmax,"[5]; dog, plasma, po, 3 mg/kg, Dog 6, read-out: Cmax",18.6 ng/mL
same,concentration at 0.5 h,"[5]; dog, plasma, po, 3 mg/kg, Time 0.5 h, Dog 3, read-out: concentration in plasma of lercanidipine (S+R)",6.99 ng/mL
same,concentration at 0.5 h,"[5]; dog, plasma, po, 3 mg/kg, Time 0.5 h, Mean (Dog 2 not included), read-out: concentration in plasma of lercanidipine (S+R)",1.4 ng/mL
same,concentration at 1 h,"[5]; dog, plasma, po, 3 mg/kg, Time 1 h, Dog 3, read-out: concentration in plasma of lercanidipine (S+R)",16.6 ng/mL
same,concentration at 1 h,"[5]; dog, plasma, po, 3 mg/kg, Time 1 h, Dog 4, read-out: concentration in plasma of lercanidipine (S+R)",5.5 ng/mL
same,concentration at 1 h,"[5]; dog, plasma, po, 3 mg/kg, Time 1 h, Dog 5, read-out: concentration in plasma of lercanidipine (S+R)",3.28 ng/mL
same,concentration at 1.5 h,"[5]; dog, plasma, po, 3 mg/kg, Time 1.5 h, Dog 4, read-out: concentration in plasma of lercanidipine (S+R)",35.4 ng/mL
same,concentration at 1.5 h,"[5]; dog, plasma, po, 3 mg/kg, Time 1.5 h, Dog 6, read-out: concentration in plasma of lercanidipine (S+R)",3.49 ng/mL
same,concentration at 2 h,"[5]; dog, plasma, po, 3 mg/kg, Time 2 h, Dog 1, read-out: concentration in plasma of lercanidipine (S+R)",7.63 ng/mL
same,concentration at 3 h,"[5]; dog, plasma, po, 3 mg/kg, Time 3 h, Dog 4, read-out: concentration in plasma of lercanidipine (S+R)",28.4 ng/mL
same,concentration at 3 h,"[5]; dog, plasma, po, 3 mg/kg, Time 3 h, Dog 5, read-out: concentration in plasma of lercanidipine (S+R)",40.6 ng/mL
same,concentration at 4 h,"[5]; dog, plasma, po, 3 mg/kg, Time 4 h, Dog 3, read-out: concentration in plasma of lercanidipine (S+R)",14.1 ng/mL
same,concentration at 4 h,"[5]; dog, plasma, po, 3 mg/kg, Time 4 h, Dog 5, read-out: concentration in plasma of lercanidipine (S+R)",23.7 ng/mL
